Assay results taken from patent US6933309B2, “Halogenobenzyl aminopropionic acid derivatives” (Toaeiyo Ltd., priority 2002, dated 2005).
Where two headings read alike, the source gives them in different places.

Key:
[1] = test system: male KKA^y mice (obesity/noninsulin-dependent diabetes mellitus model); test: Blood glucose lowering effect and blood lipid (blood TG and blood FFA) lowering effect in mice; assay type: in vivo; conditions: 1 mg/kg/day oral, once a day over seven days, plasma on the day following final administration, vs control group; for inhibition in vivo at 1 mg/kg/day: Mus musculus, po, 168 h
Procedure: Blood glucose Lowering Effect and Blood Lipid (Blood TG and Blood FFA) Lowering Effect in Mice
Each of the test compounds was suspended in a 0.5-%(w/v) sodium CMC solution, and the suspension was forcedly administered via oral route once a day over seven days to male KKA^y mice (obesity/noninsulin-dependent diabetes mellitus model, 6 to 7 weeks old, 3 to 5 animals per group) (1 mg/kg/day). During this 7-day period, feed and water were taken ad libitum. On the day following the final administration, blood was drawn from the tail vein without anesthesia and centrifuged, to thereby prepare plasma samples. Plasma glucose level, plasma TG level, and plasma FFA level of the samples were determined through the enzymatic method by use of an L-type Wako Glu2 (Wako Pure Chemical Industries), an L-type Wako TG-H (Wako Pure Chemical Industries), and an NEFA-HA Test Wako (Wako Pure Chemical Industries), respectively, by means of a full-automated clinical chemistry analyzer (CL-8000, Shimadzu Corporation). Percent reduction was determined from the obtained values by use of the following equations.

KKA^y mice = test: Plasma adiponectin level in KKA^y mice after two weeks of oral administration; assay type: in vivo; conditions: over two weeks, 0.1, 0.3, or 1 mg/kg/day
Procedure: Separately, the present compound (1) or a salt thereof was orally administered to KKA^y mice over two weeks (0.1, 0.3, or 1 mg/kg/day), and plasma adiponectin level of each mouse was determined.

[2] = read-out: Percent reduction of blood FFA level
[3] = read-out: Percent reduction of blood TG level
[4] = read-out: Percent reduction of blood glucose level

SMILES	inhibition in vivo at 1 mg/kg/day [1, 2] [%]	inhibition in vivo at 1 mg/kg/day [1, 3] [%]	inhibition in vivo at 1 mg/kg/day [1, 4] [%]	melting point [°C]	other results
Cc1sc(-c2ccccc2)nc1CCOc1ccc(C[C@H](NCc2ccc(F)cc2)C(=O)O)cc1 [Compound 22, (S)-3-[4-[2-(5-Methyl-2-phenyl-1,3-thiazol-4-yl)ethoxy]phenyl]-2-(4-fluorobenzylamino)propionic Acid]	36	53	33	192 to 195	
Cc1oc(-c2ccccc2)nc1CCOc1ccc(C[C@H](NCc2ccc(F)cc2)C(=O)O)cc1 [Compound 18, (S)-3-[4-[2-(5-Methyl-2-phenyl-1,3-oxazol-4-yl)ethoxy]phenyl]-2-(4-fluorobenzylamino)propionic Acid]				184.5 to 186.5	effect of increasing plasma adiponectin level (KKA^y mice): particularly excellent effect of increasing plasma adiponectin level; Percent reduction of blood FFA level [1]: 27%; Percent reduction of blood TG level [1]: 40%; Percent reduction of blood glucose level [1]: 15%
Cc1sc(N2CCOCC2)nc1CCOc1ccc(C[C@H](NCc2ccc(F)cc2)C(=O)O)cc1 [Compound 23, (S)-3-[4-[2-[5-Methyl-2-(morpholin-4-yl)-1,3-thiazol-4-yl]ethoxy]phenyl]-2-(4-fluorobenzylamino)propionic Acid]				192 to 194	
Cc1oc(-c2ccccc2)nc1CCOc1ccc(C[C@H](NCc2ccccc2)C(=O)O)cc1 [Comparative Compound 1, (S)-3-[4-[2-(5-Methyl-2-phenyl-1,3-oxazol-4-yl)ethoxy]phenyl]-2-(benzylamino)propionic Acid]	-2	17	12	206 to 209	
Cc1oc(-c2ccc(F)cc2)nc1CCOc1ccc(C[C@H](NCc2ccc(F)cc2)C(=O)O)cc1 [Compound 19, (S)-3-[4-[2-[2-(4-Fluorophenyl)-5-methyl-1,3-oxazol-4-yl]ethoxy]phenyl]-2-(4-fluorobenzylamino)propionic Acid]				191 to 193	
CCOC(=O)[C@H](Cc1ccc(OCCc2nc(-c3ccccc3)oc2C)cc1)NCc1ccc(F)cc1.CS(=O)(=O)O [Compound 38, Ethyl(S)-3-[4-[2-(5-methyl-2-phenyl-1,3-oxazol-4-yl)ethoxy]phenyl]-2-(4-fluorobenzylamino)propionate methanesulfonate]	16	33	25	144	
Cc1oc(-c2ccc(C(F)(F)F)cc2)nc1CCOc1ccc(C[C@H](NCc2ccc(F)cc2)C(=O)O)cc1 [Compound 21, (S)-3-[4-[2-[5-Methyl-2-(4-trifluoromethylphenyl)-1,3-oxazol-4-yl]ethoxy]phenyl]-2-(4-fluorobenzylamino)propionic Acid]				202 to 204	
Cc1oc(-c2ccccc2)nc1CCOc1ccc(C[C@H](NCc2cccc(F)c2F)C(=O)O)cc1 [Compound 27, (S)-3-[4-[2-(5-Methyl-2-phenyl-1,3-oxazol-4-yl)ethoxy]phenyl]-2-(2,3-difluorobenzylamino)propionic Acid]	16	48	40	173 to 175	
Cc1oc(-c2ccccc2)nc1CCOc1ccc(C[C@H](NCc2ccc(F)cc2)C(=O)O)cc1.Cl				198 to 200	
Cc1oc(-c2ccccc2)nc1CCOc1ccc(C[C@H](NCc2ccccc2F)C(=O)O)cc1 [Compound 24, (S)-3-[4-[2-(5-Methyl-2-phenyl-1,3-oxazol-4-yl)ethoxy]phenyl]-2-(2-fluorobenzylamino)propionic Acid]				191 to 193	
Cc1oc(-c2ccccc2)nc1CCOc1ccc(C[C@H](NCc2c(F)cc(F)cc2F)C(=O)O)cc1 [Compound 29, (S)-3-[4-[2-(5-Methyl-2-phenyl-1,3-oxazol-4-yl)ethoxy]phenyl]-2-(2,4,6-trifluorobenzylamino)propionic Acid]	58	74	43	168 to 170	
Cc1oc(-c2ccccc2)nc1CCOc1ccc(C[C@@H](C(=O)O)N(C)Cc2ccc(F)cc2)cc1 [Compound 34, (S)-3-[4-[2-(5-Methyl-2-phenyl-1,3-oxazol-4-yl)ethoxy]phenyl]-2-[N-(4-fluorobenzyl)-N-methylamino]propionic Acid]				142 to 145	
Cc1oc(-c2ccccc2)nc1CCOc1ccc(C[C@H](NCc2c(F)cccc2F)C(=O)O)cc1 [Compound 28, (S)-3-[4-[2-(5-Methyl-2-phenyl-1,3-oxazol-4-yl)ethoxy]phenyl]-2-(2,6-difluorobenzylamino)propionic Acid]	54	65	50	165 to 167	
Cc1oc(-c2ccccc2)nc1CCOc1ccc(C[C@H](NCc2ccc(Br)cc2)C(=O)O)cc1 [Compound 33, (S)-3-[4-[2-(5-Methyl-2-phenyl-1,3-oxazol-4-yl)ethoxy]phenyl]-2-(4-bromobenzylamino)propionic Acid]				196 to 199	
Cc1oc(-c2ccccc2)nc1CCOc1ccc(C[C@H](NCc2ccccc2Cl)C(=O)O)cc1 [Compound 32, (S)-3-[4-[2-(5-Methyl-2-phenyl-1,3-oxazol-4-yl)ethoxy]phenyl]-2-(2-chlorobenzylamino)propionic Acid]	13	33	39	143 to 145	
Cc1oc(-c2ccccc2)nc1CCOc1ccc(C[C@H](NCc2ccc(F)cc2F)C(=O)O)cc1 [Compound 25, (S)-3-[4-[2-(5-Methyl-2-phenyl-1,3-oxazol-4-yl)ethoxy]phenyl]-2-(2,4-difluorobenzylamino)propionic Acid]				190 to 192	
Cc1ccc(-c2nc(CCOc3ccc(C[C@H](NCc4ccc(F)cc4)C(=O)O)cc3)c(C)o2)cc1 [Compound 20, (S)-3-[4-[2-[5-Methyl-2-(4-methylphenyl)-1,3-oxazol-4-yl]ethoxy]phenyl]-2-(4-fluorobenzylamino)propionic Acid]	25	36	21	196 to 198	
Cc1oc(-c2ccccc2)nc1CCOc1ccc(C[C@H](NCc2ccc(F)cc2)C(=O)[O-])cc1.[Na+] [Compound 35, Sodium (S)-3-[4-[2-(5-methyl-2-phenyl-1,3-oxazol-4-yl)ethoxy]phenyl]-2-(4-fluorobenzylamino)propionate]	33	47		179 to 181	Percent reduction of blood glucose level [1]: 36%
Cc1oc(-c2ccccc2)nc1CCOc1ccc(C[C@H](NCc2ccc(Cl)cc2)C(=O)O)cc1 [Compound 31, (S)-3-[4-[2-(5-Methyl-2-phenyl-1,3-oxazol-4-yl)ethoxy]phenyl]-2-(4-chlorobenzylamino)propionic Acid]				197 to 199	
Cc1oc(-c2ccccc2)nc1CCOc1ccc(C[C@H](NCc2ccc(F)c(F)c2)C(=O)O)cc1 [Compound 26, (S)-3-[4-[2-(5-Methyl-2-phenyl-1,3-oxazol-4-yl)ethoxy]phenyl]-2-(3,4-difluorobenzylamino)propionic Acid]				202 to 204	
